Source: patent publication US12016357B2, “Glycoside compositions” (CARGILL, INCORPORATED, priority 2015, dated 2024)

Columns and labels:
[1] = Trained sensory panel rating of sweetness intensity (SEV) and bitterness intensity, Example 1; type: in vivo; conditions: for Sweetness Avg. / Bitter Avg.: mean of five replicate tests; for Bitter Avg.: caffeine scale 1-15
Method: A sensory panel was trained to scale sweetness and bitterness. Reference tasting standards were prepared by dissolving respective standard material (sucrose for sweetness and caffeine for bitterness) into an aqueous citric acid buffer solution at pH 3.1 (distilled water containing 0.1% citric acid and 0.015% sodium citrate) according to the scale values shown in Table 1 below.
Solutions were made in the same citric acid buffer as the reference standard solutions. All solutions were heated to 55° C. for 12 minutes to ensure that all the glycoside material was completely dissolved. The solutions were allowed to cool to room temperature before serving to the panelists. Each solution was given a random 3-digit code and was served to the panelists in random order. Panelists dispensed 2 mL of each solution into their mouths from a pipette. The panelists were then asked to rate the “sweetness intensity” and “bitterness intensity” of the solutions and mark their responses on an un-anchored, 15 cm line scale. The length of the line corresponds to the scale values (1-15) on which the participants were trained. The panelists' responses were measured, compiled, and averaged for each sample. Each sample was tested by approximately 17 to 21 trained panelists.
In between testing samples, the panelists cleansed their palates with water and apple slices. The panelists also waited 5 minutes between each sample. Sweetness and bitter values of rebaudioside D (purity of 94.4%) and rebaudioside M (purity of […]) at varying concentrations were also obtained utilizing a sensory panel in a manner as described above. The sweetness is reported as sweetness and the sweetness is measured as a sucrose equivalent (SEV).
The sweetness and bitterness values of sweetener compositions containing Reb D or Reb M with other glycosides are shown in Tables 3-5. As described above, the samples were tasted by the panelist in random order. The tables show the concentration of the composition tested (ppm) as well as the ratio of one glycoside to another in the composition as a weight percentage.

[2] = Trained sensory panel rating of sweetness and bitterness intensity, Example 2 (measured values, S/B); type: in vivo; conditions: for Measured Bitterness / Measured Sweetness: citric acid buffer, scale 1-15; for Measured S/B: sweetness/bitterness ratio
Method: A trained sensory panel evaluated solutions of each rebaudioside D, rebaudioside M, rebaudioside G, rebaudioside O, rebaudioside N and rebaudioside E at 400 ppm and 600 ppm. Solutions were made in a citric acid buffer as the reference standard solutions described in Example 1. All solutions were heated to 55° C. for 12 minutes to ensure that all the glycoside material was completely dissolved. The solutions were allowed to cool to room temperature before serving to the panelists. Each solution was given a random 3-digit code and was served to the panelists in random order. Panelists dispensed 2 mL of each solution into their mouths from a pipette. The panelists were then asked to rate the “sweetness intensity” and “bitterness intensity” of the solutions and mark their responses on an un-anchored, 15 cm line scale. The length of the line corresponds to the scale values (1-15) on which the participants were trained. The panelists' responses were measured, compiled, and averaged for each sample (measured sweetness values and bitterness values). In between testing samples, the panelists cleansed their palates with water and apple slices. The panelists also waited 5 minutes between each sample. Rebaudioside D (purity of 94.4%) was obtained from ChromaDex™ Corp and rebaudioside M (purity 99.3%) was obtained from Cargill, Incorporated. Rebaudioside G (purity of 96.0%), Rebaudioside O (purity of 97.9%), Rebaudioside N (purity of 93.5%), Rebaudioside E (purity of 97.2%) were each obtained from ChromaaDex™ Corp. […] Also shown in Table 7 is the sweetness/bitterness ratios (S/B).

[3] = 400 ppm in citric acid buffer pH 3.1
[4] = 600 ppm in citric acid buffer pH 3.1
[5] = total blend 400 ppm, citric acid buffer pH 3.1

SMILES	Sweetness Avg. [1, 3] [SEV]	Bitter Avg. [1, 3]	Sweetness Avg. [1, 4] [SEV]	Bitter Avg. [1, 4]	Measured Bitterness ([2]; 400 ppm)	Measured Sweetness ([2]; 400 ppm)	Measured S/B ([2]; 400 ppm)	Measured Bitterness ([2]; 600 ppm)	Measured Sweetness ([2]; 600 ppm)	Measured S/B ([2]; 600 ppm)	Bitter [1, 5]	Sweetness [1, 5] [SEV]
C=C1C[C@@]23CC[C@H]4[C@@](C)(CCC[C@@]4(C)C(=O)O[C@@H]4O[C@H](CO)[C@@H](O)[C@H](O)[C@H]4O[C@@H]4O[C@H](CO)[C@@H](O)[C@H](O)[C@H]4O)[C@@H]2CC[C@]1(O[C@@H]1O[C@H](CO)[C@@H](O)[C@H](O[C@@H]2O[C@H](CO)[C@@H](O)[C@H](O)[C@H]2O)[C@H]1O[C@@H]1O[C@H](CO)[C@@H](O)[C@H](O)[C@H]1O)C3 [Reb D, Rebaudioside D]	7.1	3.6	8.3	4.2	3.51	7.08	2.05	3.80	8.31	2.23		
C=C1C[C@@]23CC[C@H]4[C@@](C)(CCC[C@@]4(C)C(=O)O[C@@H]4O[C@H](CO)[C@@H](O)[C@H](O)[C@H]4O[C@@H]4O[C@H](CO)[C@@H](O)[C@H](O)[C@H]4O)[C@@H]2CC[C@]1(O[C@@H]1O[C@H](CO)[C@@H](O)[C@H](O)[C@H]1O[C@@H]1O[C@H](CO)[C@@H](O)[C@H](O)[C@H]1O)C3 [Reb E, Rebaudioside E]					2.93	4.53	1.55	2.98	6.29	2.11		
C=C1C[C@@]23CC[C@H]4[C@@](C)(CCC[C@@]4(C)C(=O)O[C@@H]4O[C@H](CO)[C@@H](O)[C@H](O)[C@H]4O)[C@@H]2CC[C@]1(O[C@@H]1O[C@H](CO)[C@@H](O)[C@H](O[C@@H]2O[C@H](CO)[C@@H](O)[C@H](O)[C@H]2O)[C@H]1O)C3 [Reb G, Rebaudioside G]					2.53	2.17	0.86	2.30	1.98	0.84		
C=C1C[C@@]23CC[C@H]4[C@@](C)(CCC[C@@]4(C)C(=O)O[C@@H]4O[C@H](CO)[C@@H](O)[C@H](O[C@@H]5O[C@H](CO)[C@@H](O)[C@H](O)[C@H]5O)[C@H]4O[C@@H]4O[C@H](CO)[C@@H](O)[C@H](O)[C@H]4O)[C@@H]2CC[C@]1(O[C@@H]1O[C@H](CO)[C@@H](O)[C@H](O[C@@H]2O[C@H](CO)[C@@H](O)[C@H](O)[C@H]2O)[C@H]1O[C@@H]1O[C@H](CO)[C@@H](O)[C@H](O)[C@H]1O)C3 [Reb M, Rebaudioside M]	7.7	3.8	8.4	4.2	3.65	7.76	2.14	3.76	8.38	2.26		
C=C1C[C@@]23CC[C@H]4[C@@](C)(CCC[C@@]4(C)C(=O)O[C@@H]4O[C@H](CO)[C@@H](O)[C@H](O[C@@H]5O[C@H](CO)[C@@H](O)[C@H](O)[C@H]5O)[C@H]4O[C@@H]4O[C@@H](C)[C@H](O)[C@@H](O)[C@H]4O)[C@@H]2CC[C@]1(O[C@@H]1O[C@H](CO)[C@@H](O)[C@H](O[C@@H]2O[C@H](CO)[C@@H](O)[C@H](O)[C@H]2O)[C@H]1O[C@@H]1O[C@H](CO)[C@@H](O)[C@H](O)[C@H]1O)C3 [Reb N, Rebaudioside N]					3.03	7.44	2.45	3.25	7.709	2.37		
C=C1C[C@@]23CC[C@H]4[C@@](C)(CCC[C@@]4(C)C(=O)O[C@@H]4O[C@H](CO)[C@@H](O)[C@H](O[C@@H]5O[C@H](CO)[C@@H](O)[C@H](O)[C@H]5O)[C@H]4O[C@@H]4O[C@@H](C)[C@H](O)[C@@H](O[C@@H]5O[C@H](CO)[C@@H](O)[C@H](O)[C@H]5O)[C@H]4O)[C@@H]2CC[C@]1(O[C@@H]1O[C@H](CO)[C@@H](O)[C@H](O[C@@H]2O[C@H](CO)[C@@H](O)[C@H](O)[C@H]2O)[C@H]1O[C@@H]1O[C@H](CO)[C@@H](O)[C@H](O)[C@H]1O)C3 [Reb O, Rebaudioside O]					2.98	7.47	2.51	3.23	7.669	2.37	3.1	7.2
